The values below come from US20210032806A1, “ANTIMICROBIAL FABRIC TREATMENT” (The Procter & Gamble Company, priority 2019, published 2021).

Converted amounts (≈) assume the structure as drawn.

For orientation: MBC means the smallest concentration meeting the test's criterion for killing.

Format in all cases: cell-based
The subject of test [1] is Staphylococcus aureus (S. aureus—ATCC #6538). Put plainly: Minimum Biocidal Concentration (MBC) in suspension, S. aureus. To be noted: 6 minutes contact time, 5% horse serum soil load. Here is the method:
(§1) The antimicrobial efficacy of the antimicrobial agent in the aqueous liquor is determined by measuring its Minimum Biocidal Concentration (MBC). The MBC is defined as the lowest absolute concentration of the particular antimicrobial active which provides complete kill (zero bacterial growth). The MBC of the bispyridinium alkane antimicrobial active is determined against the bacterium, Staphylococcus aureus (S. aureus—ATCC #6538), a gram positive bacterium, and against Escherichia coli (E. coli ATCC #8739) these microorganisms are representative of natural contaminants in many consumer and industrial applications. The bacteria inoculum is prepared by transferring several colonies from a Tryptone Soy Agar (TSA) plate to a saline solution (0.85% NaCl) comprising 5% of horse serum as additional soil load, the bacteria concentration in this saline solution is determined by measuring the % Transmittance at 425 nm and adjusted by either adding more bacteria or more saline solution until the % Transmittance at 425 nm is between 23-25% for S. aureus and 31-33% for E. coli. These % Transmittance values correspond to a bacteria concentration of 10^8 CFU/ml.
(§2) The antimicrobial agent was added to the aqueous liquor to be used in the method of the present invention at a level of 200 ppm, or 100 ppm or 50 ppm. 200 μL of the antimicrobial aqueous liquor was dosed into one well of row A of a 96 well microtiter plate. Each subsequent well (rows B to G) were dosed with 100 μL of the same aqueous liquor, without the addition of the antimicrobial agent. 100 μL of the antimicrobial aqueous liquor was transferred from row A to row B and mixed. 100 μL of the antimicrobial aqueous liquor was then transferred from row B to row C and mixed, and the process repeated to row G. As such, the concentration of the antimicrobial agent underwent two-fold dilution in adjacent wells, while the concentration of any adjunct present in the aqueous liquor remained constant across all the wells in the same column.
10 μL of the 10^8 CFU/ml bacteria suspension in saline was added to wells A to F of the microtiter plate with row G kept as a nil bacteria control. The final volume in each well was 110 μL, except for row G which comprised 100 μL of the hard surface cleaning composition and no bacteria suspension. Bacterial inoculation to each column was staggered by 30 seconds to allow for equal incubation times in all wells so that the contact time between the bacteria and the antimicrobial active for all samples was 6 mins. After this contact time, 10 μL of each test solution was transferred to 90 μL of neutraliser solution (Modified Letheen Broth+1.5% Polysorbate 80, supplied by BioMérieux) to stop the antimicrobial action of the antimicrobial active matching the stagger of the inoculation. 2 μL of this solution was plated onto a TSA plate matching the stagger of the inoculation so that all samples are exposed to the neutralizer for the same period of time. The plate is incubated at 32.5° C. for 24-48 h for S. aureus, and 24 h for E. coli. MBC concentration is taken as the lowest concentration of the antimicrobial active at which no visible colony growth is observed on the TSA plate.
(§3) The antibacterial efficacy of the bispyridinium alkane octenidine hydrochloride was compared to that of N-(3-aminopropyl)-N-dodecylpropane-1,3-diamine (Lonzabac 12.30-Lonza) and n-alkyl dimethyl benzyl ammonium chloride/n-alkyl dimethyl ethylbenzyl ammonium chloride (BTC2125-Stepan) in different aqueous liquors. The minimal biocidal concentration (MBC) in suspension of each antibacterial active against a gram positive bacterium (Staphylococcus aureus) and a gram negative bacterium (Escherichia coli) was determined after 6 minutes contact time.

Test [2] relates to Escherichia coli (E. coli ATCC #8739). Put plainly: Minimum Biocidal Concentration (MBC) in suspension, E. coli. To be noted: 6 minutes contact time, 5% horse serum soil load; for MBC: Escherichia coli, ATCC8739, 0.1 h. As to the method:
as §1, §2
10 μL of the 10^8 CFU/ml bacteria suspension in saline was added to wells A to F of the microtiter plate with row G kept as a nil bacteria control. […]
as §3

Test [3] relates to Staphylococcus aureus (S. aureus—ATCC #6538). Put plainly: Antibacterial efficacy on cotton fabrics. To be noted: cotton fabric, 625 ppm active in liquor with 3750 ppm C12-C14 EO7, 1 h contact; for Number of bacteria recovered from treated fabrics: nil AB reference 9.1 × 10^5 CFU/ml. Here is the method: The bactericidal efficacy on fabric surfaces of treatments with antimicrobial aqueous liquors comprising different antimicrobial agents was determined against the bacterium Staphylococcus aureus (S. aureus—ATCC #6538). The bacteria inoculum was prepared by transferring several colonies from a Tryptone Soy Agar (TSA) plate to a saline solution (0.85% NaCl) comprising 5% horse serum as additional soil load, the bacteria concentration in this saline solution was determined by measuring the % Transmittance at 425 nm and adjusted by either adding more bacteria or more saline solution until the % Transmittance at 425 nm is between 23-25% which corresponds to a bacteria concentration of 10^8 CFU/ml.
Fabric carriers, 1 cm×1 cm disks of cotton sterilized by autoclaving, were inoculated with 30 μL of the 10^8 CFU/ml bacteria inoculum and incubated for 20 mins at 32° C. After this incubation period, 3 fabric carriers were placed within bundles of 10 clean sterile cotton disks and secured by placing a sterile 30 mm paperclip to the edge of the bundle. The fabric bundles were placed in 30 ml of antimicrobial aqueous liquors to be used in the method of the present invention comprising 3750 ppm of C12-C14 EO7 alkyl ethoxylate non ionic surfactant and 625 ppm of either bispyridinium alkane (octenidine dihydrochloride), N-(3-aminopropyl)-N-dodecylpropane-1,3-diamine (Lonzabac 12.30) or benzalkonium chloride (Sigma-Aldrich CAS number 63449-41-2) as antimicrobial actives. The contact time between the bacteria in the fabric carriers and the antimicrobial aqueous liquor was 1 h. After this contact time, each fabric bundle was rinsed for 5 minutes with water and the 3 fabric carries transferred to 9 ml of neutralizer solution (Modified Letheen Broth+1.5% Polysorbate 80, supplied by BioMérieux) to stop the antimicrobial action of the antimicrobial active. The neutralizer tube containing the fabric carriers was vortexed in a Genie 2 vortexer set at speed 7 for 30 seconds. Ten-fold dilutions of the neutralizer+fabric carrier solution were prepared by transferring 1 ml of the neutralizer solution to 9 ml of neutralizer solution, this solution was further diluted in neutralizer solution following the same protocol so that serial ten-fold dilutions were obtained. 100 μL of each of the serial dilutions were plated on a TSA plate, plates were incubated at 32° C. for 18 hours, after this incubation time, the number of colonies in each plate was counted. The target dilution used to determine the bactericidal efficacy of aqueous liquor of the method of the present invention was the one delivering 30-300 CFU in the plate, the data reported for each antimicrobial active is the average of the bacteria number in three plates multiplied by the target dilution. The log reduction for each antibacterial treatment vs nil antibacterial active reference is the log 10 of the number obtained by dividing the number of colonies recovered from the fabrics treated with the nil antibacterial reference aqueous liquor by the number of colonies recovered from the fabrics treated with aqueous liquors comprising the different antimicrobial actives.
Cotton fabrics inoculated with bacteria were treated for 1 hour with aqueous liquors comprising 3750 ppm of C12-C14 EO7 alkyl ethoxylate non ionic surfactant and either no antibacterial active (ref) or 625 ppm of octenidine hydrochloride, 625 ppm of Lonzabac 12.30 or 625 ppm of benzalkonium chloride as antibacterial actives. After the treatment, the bacteria remaining on the treated fabrics were extracted and quantified. It can be seen that the treatment done with the aqueous liquor comprising octenidine hydrochloride provides better antibacterial efficacy, i.e. less bacteria remaining on fabrics, and higher log reduction, than the treatments done with aqueous liquors comprising either Lonzabac or benzalkonium chloride.

The mark [4] stands for this setting: aqueous liquor 2: Octyliminodipropionate (Ampholak YJH 40) 0.1%.
Setting [5] is: aqueous liquor 3: C12-C14 EO7 alcohol ethoxylate 0.1%.
Where [6] appears, read: aqueous liquor 5: Sodium lauroamphohydroxypropylsulfonate (Miranol JS) 0.0062%.
[7] abbreviates: aqueous liquor 7: Octyliminodipropionate (Ampholak YJH 40) 0.0062%.
[8] abbreviates: aqueous liquor 8: C12-C14 EO7 alcohol ethoxylate 0.0062%.

Regarding `CCCCCCCCN=c1ccn(CCCCCCCCCCn2ccc(=NCCCCCCCC)cc2)cc1.Cl.Cl` [Octenidine, octenidine dihydrochloride], the “MBC S. aureus” value in test [1] (aqueous liquor 1: deionized water) is given as 3.125 ppm; in test [1] (setting [4]), 3.125 ppm; in test [1] (setting [5]), 6.25 ppm; in test [1] (setting [6]), 3.125 ppm. In addition, the “MBC E. coli” value is 3.125 ppm in test [2] (setting [7]) and 6.25 ppm in test [2] (setting [8]). Besides, in test [3], the “Log reduction vs treatment with nil AB active reference” value (“Log reduction vs treatment” below) is “Log 2.5”. The “Number of bacteria recovered from treated fabrics” value (“Number of bacteria recovered” below) in test [3] is recorded as 2.8 × 10^3 CFU/ml.

For the molecule benzalkonium chloride, in test [3], the “Log reduction vs treatment” value is given as “Log 1.2” and the “Number of bacteria recovered” value was 5.8 × 10^4 CFU/ml.

For the molecule `CCCCCCCCCCCCN(CCCN)CCCN` [Lonzabac 12.30, N-(3-aminopropyl)-N-dodecylpropane-1,3-diamine], the MBC in test [1] (Staphylococcus aureus, ATCC6538, 0.1 h, aqueous liquor 1: deionized water) turned out to be 25 µg/mL (≈ 83.5 µM); in test [2] (setting [7]), 50 µg/mL (≈ 167 µM); in test [2] (setting [8]), 25 µg/mL (≈ 83.5 µM). Further, the “MBC S. aureus” value in test [1] (setting [4]), in test [1] (setting [5]), in test [1] (aqueous liquor 4: Disodium capryloamphodiacetate (Mackam 2CY75) 0.025%) and in test [1] (setting [6]) was 25 ppm each time. In addition, the “Log reduction vs treatment” value in test [3] is “Log 0.7”. Also, the “Number of bacteria recovered” value in test [3] is 1.9 × 10^5 CFU/ml.
